≈ marks a conversion by molar mass, not a printed value.
Experiments:
kidney of normal mice = conditions: mouse, in vivo; for Amount of NAG in urine: ip, 120 mg/kg/day
Description: An evaluation system of influence on the kidney was constructed based on renal disease model preparation method using gentamicin (KIDNEY AND DIALYSIS, Vol. 31, 1991, extra edition, “Renal Disease Model”, p. 423 “Drug-induced Renal Damage and its Examination Method,” Kidney and Dialysis Editorial Committee, published by TOKYOIGAKUSYA). The influence of the compound represented by formula (I) produced in Example 1 on the kidney was evaluated using this evaluation system. A physiological saline administration group and an arbekacin administration group were set as control groups. Each group consisted of four mice (Crj: CD-1 (ICR) female mice of eight weeks old).
In the above evaluation system, the evaluation of nephrotoxicity was carried out using NAG as an index. NAG exists in lysosome in each tissue of humans and animals, is an enzyme, which converts a mucopolysaccharide to a glycoprotein, for example, converts β-N-acetyl-D-glucosaminide to β-N-acetyl-D-glucosamine, and is plentifully present in proximal uriniferous tubule epithelial cells of the kidney in which aminoglycoside antibiotics are particularly accumulated. When the kidney, especially its proximal uriniferous tubule is damaged, NAG is released into urine to increase the amount of NAG in the urine. Accordingly, the increase in the amount of NAG in urine is considered to reflect proximal uriniferous tubule damage and is adopted as one of biochemical markers for estimating the level of renal insufficiency in clinical test items. The amount of NAG is measured by an examination method, for example, an MCP-NAG method (Outline of Latest Internal Medicine, Vol. 4, Clinical Laboratory—Kensa No Susumekata To Deta No Yomikata (How To Forward Examination and How To Read Data)—<Naika Soron 4 (General Remarks Of Internal Medicine 4> p. 274, Imura et al. (ed.), published by Nakayama Syoten Co., Ltd., 1994).
A solution of physiological saline of the compound according to the present invention having a concentration of 12 mg/mL was administered to the mice in each group at a dose of 120 mg/kg/day (in two divided doses; morning and afternoon) for 4 days by repeated intraperitoneal administration. Naturally excreted urine was collected for about 24 hr from the completion of the administration in the morning on day 4, and the amount of NAG in the urine was measured by the MCP-NAG method. The same treatment was carried out for the physiological saline administration group and the arbekacin administration group.
The influence of arbekacin and an arbekacin analogue TS2037 (5,4″-diepiarbekacin) produced according to the description of WO 2005/070945 on the kidney was evaluated in the same manner as in Test Example 3. […]

[1] = tested on: clinically isolated MRSA strain (n=9), which has low sensitivity to arbekacin; experiment: Antimicrobial activity (MIC), agar plate dilution method, MRSA with low sensitivity to arbekacin; type: cell-based, methicillin-resistant Staphylococcus aureus (MRSA); conditions: Staphylococcus aureus, clinically isolated MRSA strain (n=9) with low sensitivity to arbekacin, read-out: minimal inhibitory concentration (MIC)
Description: MIC of the compound represented by formula (I) produced in Example 1 against an MRSA strain, specifically a clinically isolated MRSA strain (n=9), which has low sensitivity to arbekacin and against which the minimal inhibitory concentration (MIC, μg/mL) is 4 to 8, was measured by an agar plate dilution method according to the standard method of Japan Society of Chemotherapy (Chemotherapy, Vol. 29, pp. 76 to 79, 1981).

[2] = tested on: clinically isolated MRSA strain, which has high resistance to arbekacin; experiment: Antimicrobial activity (MIC), agar plate dilution method, MRSA with high resistance to arbekacin; type: cell-based, methicillin-resistant Staphylococcus aureus (MRSA); conditions: Staphylococcus aureus, different from Test Example 1
[3] = tested on: proximal uriniferous tubule epithelial cells of the kidney of pigs; conditions: pig kidney proximal uriniferous tubule epithelial cells; compared with arbekacin; 44th ICAAC (2004) subject No. F-716; cited from earlier work

Amount of NAG in urine (kidney of normal mice) [mIU]	MIC [1] [µg/mL]	MIC [2] [µg/mL]	amount of NAG in the urine (kidney of normal mice) [mIU]	SMILES	nephrotoxicity using NAG as an index [3]
74.7	0.5 to 2			NCC[C@H](O)C(=O)NC1C(O)[C@H](N)C(O[C@H]2OC(CN)CCC2N)C(O)[C@H]1O[C@H]1OC(CO)[C@@H](O)C(N)C1O (stereo in doubt) [Compound represented by formula (I), 2-Hydroxyarbekacin]	
135.0	4 to 8 (≈ 7.24 to 14.5 µM)	128 (≈ 232 µM)	168.5	NCC[C@H](O)C(=O)N[C@@H]1C[C@H](N)[C@@H](O[C@H]2O[C@H](CN)CC[C@H]2N)[C@H](O)[C@H]1O[C@H]1O[C@H](CO)[C@@H](O)[C@H](N)[C@H]1O [Arbekacin, (S)-1-N-(4-amino-2-hydroxybutyryl)dibekacin]	
			358.8	NCC[C@H](O)C(=O)NC1C[C@H](N)C(O[C@H]2OC(CN)CCC2N)C(O)[C@H]1O[C@H]1OC(CO)[C@H](O)C(N)C1O (some centres unmarked) [TS2037, 5,4″-diepiarbekacin]	higher than that of arbekacin

Reference: US8541394B2, “Aminoglycoside antibiotics” (Meiji Seika Pharma Co., Ltd., priority 2006, dated 2013)
